Measurements published in US7420051B2, “Synthetic process for the manufacture of an ecteinaschidin compound” (Pharma Mar, S.A., priority 2000, dated 2008).

Tests used:
Assay type in all cases: cell-based
[1] = system: CV-1; experiment: Cytotoxic activity screening, CV-1 cells; conditions: Cercopithecidae
[2] = system: P-388 (suspension culture of a lymphoid neoplasm from DBA/2 mouse); experiment: Cytotoxic activity screening, P-388 cells; conditions: Mus musculus, P388, 72 h, three days of incubation, approximate IC50
Protocol: (§1) Cell Cultures. Cells were maintained in logarithmic phase of growth in Eagle's Minimum Essential Medium, with Earle's Balanced Salts, with 2.0 mM L-glutamine, with non-essential amino acids, without sodium bicarbonate (EMEM/neaa); supplemented with 10% Fetal Calf Serum (FCS), 10^−2 M sodium bicarbonate and 0.1 g/l penicillin-G+streptomycin sulfate.
(§2) A simple screening procedure has been carried out to determine and compare the antitumour activity of these compounds, using an adapted form of the method described by Bergeron et al (1984). The tumour cell line employed have been P-388 (suspension culture of a lymphoid neoplasm from DBA/2 mouse), A-549 (monolayer culture of a human lung carcinoma), HT-29 (monolayer culture of a human colon carcinoma) and MEL-28 (monolayer culture of a human melanoma).
P-388 cell were seeded into 16 mm wells at 1×10^4 cells per well in 1 ml aliquots of MEM 5FCS containing the indicated concentration of drug. A separate set of cultures without drug was seeded as control growth to ensure that cells remained in exponential phase of growth. All determinations were carried out in duplicate.

[3] = system: DU-145; experiment: Cytotoxic activity screening, DU-145 cells; conditions: Homo sapiens, DU-145, DU-145 cells
[4] = system: HT-29 (monolayer culture of a human colon carcinoma); experiment: Cytotoxic activity screening, HT-29 cells; conditions: Homo sapiens, HT-29, 72 h, three days of incubation, Crystal Violet, approximate IC50
Protocol: as §1, §2
(§3) A-549, HT-29 and MEL-28 were seeded into 16 mm wells at 2×10^4 cells per well in 1 ml aliquots of MEM 10FCS containing the indicated concentration of drug. A separate set of cultures without drug was seeded as control growth to ensure that cells remained in exponential phase of growth. All determinations were carried out in duplicate. After three days of incubation at 37° C., 10% CO2 in a 98% humid atmosphere, the wells were stained with 0.1% Crystal Violet. An approximately IC50 was determined by comparing the growth in wells with drug to the growth in wells control.

[5] = system: A-549 (monolayer culture of a human lung carcinoma); experiment: Cytotoxic activity screening, A-549 cells; conditions: Homo sapiens, A549, 72 h, three days of incubation, Crystal Violet, approximate IC50
Protocol: as §1, §2, §3

[6] = system: MEL-28 (monolayer culture of a human melanoma); experiment: Cytotoxic activity screening, MEL-28 cells; conditions: SK-MEL-28, 72 h, three days of incubation, Crystal Violet, approximate IC50
Protocol: as §1, §2, §3

Measured: IC50

COc1c(C)cc2c(c1O)[C@@H]1C3Cc4c(O)c(C)c5c(c4[C@H](CN4C(=O)c6ccccc6C4=O)N3[C@@H](C#N)[C@H](C2)N1C)OCO5 (stereo partly drawn)
0.001 µM: [1] | [2] | [3] | [4] | [5] | [6]
